Test results from ChEMBL document CHEMBL1201861, “Genomics of Drug Sensitity in Cancer screening data, Wellcome Trust Sanger Institute”.

system: COR-L88; experiment: cells; type: functional, cell-based, Homo sapiens; conditions: Homo sapiens, COR-L88;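 further: growth inhibition of COR-L88 cells, read out with a cell viability assay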
Description: SANGER: Inhibition of human COR-L88 cell growth in a cell viability assay.

Compound | IC50
Cc1ccc(-n2nc(C(C)(C)C)cc2NC(=O)Nc2ccc(OCCN3CCOCC3)c3ccccc23)cc1 [DORAMAPIMOD] | > 10 µM

system: DJM-1; experiment: cells; type: functional, cell-based, Homo sapiens; conditions: Homo sapiens, DJM-1;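 further: growth inhibition of human DJM-1 cells, read out by a cell viability assay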
Description: SANGER: Inhibition of human DJM-1 cell growth in a cell viability assay.

Compound | IC50
Cc1ccc(-n2nc(C(C)(C)C)cc2NC(=O)Nc2ccc(OCCN3CCOCC3)c3ccccc23)cc1 [DORAMAPIMOD] | > 10 µM

system: DMS-114; experiment: cells; type: functional, cell-based, Homo sapiens; conditions: Homo sapiens, DMS-114

Compound | IC50
Cc1ccc(-n2nc(C(C)(C)C)cc2NC(=O)Nc2ccc(OCCN3CCOCC3)c3ccccc23)cc1 [DORAMAPIMOD] | > 10 µM

system: EW-11; experiment: cells; type: functional, cell-based, Homo sapiens; conditions: Homo sapiens, EW-11;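 further: growth inhibition of human EW-11 cells, measured with a cell viability assay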
Description: SANGER: Inhibition of human EW-11 cell growth in a cell viability assay.

Compound | IC50
Cc1ccc(-n2nc(C(C)(C)C)cc2NC(=O)Nc2ccc(OCCN3CCOCC3)c3ccccc23)cc1 [DORAMAPIMOD] | > 10 µM

system: EW-16; experiment: cells; type: functional, cell-based, Homo sapiens; conditions: Homo sapiens, EW-16;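 further: growth inhibition of human EW-16 cells, read out as cell viability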
Description: SANGER: Inhibition of human EW-16 cell growth in a cell viability assay.

Compound | IC50
Cc1ccc(-n2nc(C(C)(C)C)cc2NC(=O)Nc2ccc(OCCN3CCOCC3)c3ccccc23)cc1 [DORAMAPIMOD] | > 10 µM

system: GB-1; experiment: cells; type: functional, cell-based, Homo sapiens; conditions: Homo sapiens, GB-1;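 further: growth of GB-1 cells judged by a viability assay, IC50 marks the concentration inhibiting growth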
Description: SANGER: Inhibition of human GB-1 cell growth in a cell viability assay.

Compound | IC50
Cc1ccc(-n2nc(C(C)(C)C)cc2NC(=O)Nc2ccc(OCCN3CCOCC3)c3ccccc23)cc1 [DORAMAPIMOD] | > 10 µM

system: GI-1; experiment: cells; type: functional, cell-based, Homo sapiens; conditions: Homo sapiens, GI-1;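 further: growth inhibition of human GI-1 cells, measured with a cell viability readout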
Description: SANGER: Inhibition of human GI-1 cell growth in a cell viability assay.

Compound | IC50
Cc1ccc(-n2nc(C(C)(C)C)cc2NC(=O)Nc2ccc(OCCN3CCOCC3)c3ccccc23)cc1 [DORAMAPIMOD] | > 10 µM

system: GI-ME-N; experiment: cells; type: functional, cell-based, Homo sapiens; conditions: Homo sapiens, GI-ME-N;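 further: growth inhibition of human GI-ME-N cells, read out with a cell viability assay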
Description: SANGER: Inhibition of human GI-ME-N cell growth in a cell viability assay.

Compound | IC50
Cc1ccc(-n2nc(C(C)(C)C)cc2NC(=O)Nc2ccc(OCCN3CCOCC3)c3ccccc23)cc1 [DORAMAPIMOD] | > 10 µM

system: GOTO; experiment: cells; type: functional, cell-based, Homo sapiens; conditions: Homo sapiens, GOTO;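 further: growth inhibition of GOTO cells, read out by a cell viability assay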
Description: SANGER: Inhibition of human GOTO cell growth in a cell viability assay.

Compound | IC50
Cc1ccc(-n2nc(C(C)(C)C)cc2NC(=O)Nc2ccc(OCCN3CCOCC3)c3ccccc23)cc1 [DORAMAPIMOD] | 6.39 µM

system: GR-ST; experiment: cells; type: functional, cell-based, Homo sapiens; conditions: Homo sapiens, GR-ST
Description: SANGER: Inhibition of human GR-ST cell growth in a cell viability assay.

Compound | IC50
Cc1ccc(-n2nc(C(C)(C)C)cc2NC(=O)Nc2ccc(OCCN3CCOCC3)c3ccccc23)cc1 [DORAMAPIMOD] | > 10 µM

system: GT3TKB; experiment: cells; type: functional, cell-based, Homo sapiens; conditions: Homo sapiens, GT3TKB;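 further: growth inhibition of the cell line, read out with a cell viability assay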
Description: SANGER: Inhibition of human GT3TKB cell growth in a cell viability assay.

Compound | IC50
Cc1ccc(-n2nc(C(C)(C)C)cc2NC(=O)Nc2ccc(OCCN3CCOCC3)c3ccccc23)cc1 [DORAMAPIMOD] | > 10 µM

system: HL-60; experiment: cells; type: functional, cell-based, Homo sapiens; conditions: Homo sapiens, HL-60;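 further: growth inhibition of human HL-60 cells, read out with a cell viability assay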
Description: SANGER: Inhibition of human HL-60 cell growth in a cell viability assay.

Compound | IC50
Cc1ccc(-n2nc(C(C)(C)C)cc2NC(=O)Nc2ccc(OCCN3CCOCC3)c3ccccc23)cc1 [DORAMAPIMOD] | > 10 µM

system: HOP-62; experiment: cells; type: functional, cell-based, Homo sapiens; conditions: Homo sapiens, HOP-62;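 further: cell growth inhibition determined with a viability assay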
Description: SANGER: Inhibition of human HOP-62 cell growth in a cell viability assay.

Compound | IC50
Cc1ccc(-n2nc(C(C)(C)C)cc2NC(=O)Nc2ccc(OCCN3CCOCC3)c3ccccc23)cc1 [DORAMAPIMOD] | > 10 µM

system: KARPAS-45; experiment: cells; type: functional, cell-based, Homo sapiens; conditions: Homo sapiens, KARPAS-45;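 further: inhibition of cell line growth, read out through a viability assay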
Description: SANGER: Inhibition of human KARPAS-45 cell growth in a cell viability assay.

Compound | IC50
Cc1ccc(-n2nc(C(C)(C)C)cc2NC(=O)Nc2ccc(OCCN3CCOCC3)c3ccccc23)cc1 [DORAMAPIMOD] | > 10 µM

system: KE-37; experiment: cells; type: functional, cell-based, Homo sapiens; conditions: Homo sapiens, KE-37;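 further: growth inhibition of KE-37 cells, read out with a cell viability assay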
Description: SANGER: Inhibition of human KE-37 cell growth in a cell viability assay.

Compound | IC50
Cc1ccc(-n2nc(C(C)(C)C)cc2NC(=O)Nc2ccc(OCCN3CCOCC3)c3ccccc23)cc1 [DORAMAPIMOD] | > 10 µM

system: KGN; experiment: cells; type: functional, cell-based, Homo sapiens; conditions: Homo sapiens, KGN;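 further: growth inhibition of KGN cells, read out with a cell viability assay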
Description: SANGER: Inhibition of human KGN cell growth in a cell viability assay.

Compound | IC50
Cc1ccc(-n2nc(C(C)(C)C)cc2NC(=O)Nc2ccc(OCCN3CCOCC3)c3ccccc23)cc1 [DORAMAPIMOD] | > 10 µM

system: KLE; experiment: cells; type: functional, cell-based; conditions: Homo sapiens;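 further: growth inhibition of human KLE cells, read out with a cell viability assay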
Description: SANGER: Inhibition of human KLE cell growth in a cell viability assay.

Compound | IC50
Cc1ccc(-n2nc(C(C)(C)C)cc2NC(=O)Nc2ccc(OCCN3CCOCC3)c3ccccc23)cc1 [DORAMAPIMOD] | > 10 µM

system: KS-1; experiment: cells; type: functional, cell-based; conditions: Homo sapiens;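 further: growth inhibition of KS-1 cells, read out with a cell viability assay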
Description: SANGER: Inhibition of human KS-1 cell growth in a cell viability assay.

Compound | IC50
Cc1ccc(-n2nc(C(C)(C)C)cc2NC(=O)Nc2ccc(OCCN3CCOCC3)c3ccccc23)cc1 [DORAMAPIMOD] | > 10 µM

system: LAN-6; experiment: cells; type: functional, cell-based, Homo sapiens; conditions: Homo sapiens, LAN-6;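 further: growth inhibition of LAN-6 cells, determined with a cell viability assay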
Description: SANGER: Inhibition of human LAN-6 cell growth in a cell viability assay.

Compound | IC50
Cc1ccc(-n2nc(C(C)(C)C)cc2NC(=O)Nc2ccc(OCCN3CCOCC3)c3ccccc23)cc1 [DORAMAPIMOD] | > 10 µM

system: LB771-HNC; experiment: cells; type: functional, cell-based; conditions: Homo sapiens;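 further: growth inhibition of LB771-HNC human cells, read out with a cell viability assay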
Description: SANGER: Inhibition of human LB771-HNC cell growth in a cell viability assay.

Compound | IC50
Cc1ccc(-n2nc(C(C)(C)C)cc2NC(=O)Nc2ccc(OCCN3CCOCC3)c3ccccc23)cc1 [DORAMAPIMOD] | > 10 µM

system: LS-1034; experiment: cells; type: functional, cell-based, Homo sapiens; conditions: Homo sapiens, LS-1034
Description: SANGER: Inhibition of human LS-1034 cell growth in a cell viability assay.

Compound | IC50
Cc1ccc(-n2nc(C(C)(C)C)cc2NC(=O)Nc2ccc(OCCN3CCOCC3)c3ccccc23)cc1 [DORAMAPIMOD] | > 10 µM

system: Lu-65; experiment: cells; type: functional, cell-based, Homo sapiens; conditions: Homo sapiens, Lu-65;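 further: growth inhibition of Lu-65 cancer cells, read out by a cell viability assay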
Description: SANGER: Inhibition of human LU-65 cell growth in a cell viability assay.

Compound | IC50
Cc1ccc(-n2nc(C(C)(C)C)cc2NC(=O)Nc2ccc(OCCN3CCOCC3)c3ccccc23)cc1 [DORAMAPIMOD] | > 10 µM

system: MC116; experiment: cells; type: functional, cell-based, Homo sapiens; conditions: Homo sapiens, MC116;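 further: growth inhibition of MC116 cells, read out with a cell viability assay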
Description: SANGER: Inhibition of human MC116 cell growth in a cell viability assay.

Compound | IC50
Cc1ccc(-n2nc(C(C)(C)C)cc2NC(=O)Nc2ccc(OCCN3CCOCC3)c3ccccc23)cc1 [DORAMAPIMOD] | > 10 µM

system: MMAC-SF; experiment: cells; type: functional, cell-based; conditions: Homo sapiens;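 further: growth inhibition of human MMAC-SF cells, read out with a cell viability assay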
Description: SANGER: Inhibition of human MMAC-SF cell growth in a cell viability assay.

Compound | IC50
Cc1ccc(-n2nc(C(C)(C)C)cc2NC(=O)Nc2ccc(OCCN3CCOCC3)c3ccccc23)cc1 [DORAMAPIMOD] | > 10 µM

system: MOLT-16; experiment: cells; type: functional, cell-based, Homo sapiens; conditions: Homo sapiens, MOLT-16;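 further: growth inhibition of human MOLT-16 cells, read out with a cell viability assay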
Description: SANGER: Inhibition of human MOLT-16 cell growth in a cell viability assay.

Compound | IC50
Cc1ccc(-n2nc(C(C)(C)C)cc2NC(=O)Nc2ccc(OCCN3CCOCC3)c3ccccc23)cc1 [DORAMAPIMOD] | > 10 µM

system: MPP-89; experiment: cells; type: functional, cell-based, Homo sapiens; conditions: Homo sapiens, MPP-89;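 further: growth inhibition of human MPP-89 cells, read out with a cell viability assay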
Description: SANGER: Inhibition of human MPP-89 cell growth in a cell viability assay.

Compound | IC50
Cc1ccc(-n2nc(C(C)(C)C)cc2NC(=O)Nc2ccc(OCCN3CCOCC3)c3ccccc23)cc1 [DORAMAPIMOD] | 8.46 µM

system: MZ2-MEL; experiment: cells; type: functional, cell-based, Homo sapiens; conditions: Homo sapiens, MZ2-MEL;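 further: growth inhibition of MZ2-MEL cells read out with a cell viability assay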
Description: SANGER: Inhibition of human MZ2-MEL cell growth in a cell viability assay.

Compound | IC50
Cc1ccc(-n2nc(C(C)(C)C)cc2NC(=O)Nc2ccc(OCCN3CCOCC3)c3ccccc23)cc1 [DORAMAPIMOD] | > 10 µM

system: NB5; experiment: cells; type: functional, cell-based, Homo sapiens; conditions: Homo sapiens, NB5;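 further: growth inhibition of NB5 cells, read out as cell viability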
Description: SANGER: Inhibition of human NB5 cell growth in a cell viability assay.

Compound | IC50
Cc1ccc(-n2nc(C(C)(C)C)cc2NC(=O)Nc2ccc(OCCN3CCOCC3)c3ccccc23)cc1 [DORAMAPIMOD] | > 10 µM

system: NB6; experiment: cells; type: functional, cell-based, Homo sapiens; conditions: Homo sapiens, NB6;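 further: growth inhibition of NB6 cells, read out by a cell viability assay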
Description: SANGER: Inhibition of human NB6 cell growth in a cell viability assay.

Compound | IC50
Cc1ccc(-n2nc(C(C)(C)C)cc2NC(=O)Nc2ccc(OCCN3CCOCC3)c3ccccc23)cc1 [DORAMAPIMOD] | > 10 µM

system: NCI-H1304; experiment: cells; type: functional, cell-based, Homo sapiens; conditions: Homo sapiens, NCI-H1304;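 further: growth inhibition of the cancer cell line, measured in a cell viability assay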
Description: SANGER: Inhibition of human NCI-H1304 cell growth in a cell viability assay.

Compound | IC50
Cc1ccc(-n2nc(C(C)(C)C)cc2NC(=O)Nc2ccc(OCCN3CCOCC3)c3ccccc23)cc1 [DORAMAPIMOD] | > 10 µM

system: NCI-H1395; experiment: cells; type: functional, cell-based, Homo sapiens; conditions: Homo sapiens, NCI-H1395;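 further: cell viability assay read-out quantifying reduced proliferation of human NCI-H1395 cells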
Description: SANGER: Inhibition of human NCI-H1395 cell growth in a cell viability assay.

Compound | IC50
Cc1ccc(-n2nc(C(C)(C)C)cc2NC(=O)Nc2ccc(OCCN3CCOCC3)c3ccccc23)cc1 [DORAMAPIMOD] | > 10 µM

system: NCI-H2126; experiment: cells; type: functional, cell-based, Homo sapiens; conditions: Homo sapiens, NCI-H2126;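 further: growth inhibition of the cancer cell line, determined with a cell viability readout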
Description: SANGER: Inhibition of human NCI-H2126 cell growth in a cell viability assay.

Compound | IC50
Cc1ccc(-n2nc(C(C)(C)C)cc2NC(=O)Nc2ccc(OCCN3CCOCC3)c3ccccc23)cc1 [DORAMAPIMOD] | > 10 µM

system: NCI-H747; experiment: cells; type: functional, cell-based, Homo sapiens; conditions: Homo sapiens, NCI-H747;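 further: growth inhibition of human NCI-H747 cells, read out by a cell viability assay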
Description: SANGER: Inhibition of human NCI-H747 cell growth in a cell viability assay.

Compound | IC50
Cc1ccc(-n2nc(C(C)(C)C)cc2NC(=O)Nc2ccc(OCCN3CCOCC3)c3ccccc23)cc1 [DORAMAPIMOD] | > 10 µM

system: NKM-1; experiment: cells; type: functional, cell-based, Homo sapiens; conditions: Homo sapiens, NKM-1;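 further: growth inhibition of NKM-1 cells, read out with a cell viability assay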
Description: SANGER: Inhibition of human NKM-1 cell growth in a cell viability assay.

Compound | IC50
Cc1ccc(-n2nc(C(C)(C)C)cc2NC(=O)Nc2ccc(OCCN3CCOCC3)c3ccccc23)cc1 [DORAMAPIMOD] | > 10 µM

system: OCUB-M; experiment: cells; type: functional, cell-based; conditions: Homo sapiens;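 further: growth inhibition of the cancer cell line, read out through a cell viability assay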
Description: SANGER: Inhibition of human OCUB-M cell growth in a cell viability assay.

Compound | IC50
Cc1ccc(-n2nc(C(C)(C)C)cc2NC(=O)Nc2ccc(OCCN3CCOCC3)c3ccccc23)cc1 [DORAMAPIMOD] | > 10 µM

system: OVCAR-4; experiment: cells; type: functional, cell-based, Homo sapiens; conditions: Homo sapiens, OVCAR-4;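 further: growth inhibition of human OVCAR-4 cells, measured with a cell viability assay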
Description: SANGER: Inhibition of human OVCAR-4 cell growth in a cell viability assay.

Compound | IC50
Cc1ccc(-n2nc(C(C)(C)C)cc2NC(=O)Nc2ccc(OCCN3CCOCC3)c3ccccc23)cc1 [DORAMAPIMOD] | > 10 µM

system: RCC10RGB; experiment: cells; type: functional, cell-based, Homo sapiens; conditions: Homo sapiens, RCC10RGB;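 further: growth inhibition of human RCC10RGB cells, read out by a cell viability assay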
Description: SANGER: Inhibition of human RCC10RGB cell growth in a cell viability assay.

Compound | IC50
Cc1ccc(-n2nc(C(C)(C)C)cc2NC(=O)Nc2ccc(OCCN3CCOCC3)c3ccccc23)cc1 [DORAMAPIMOD] | > 10 µM

system: RXF 393; experiment: cells; type: functional, cell-based, Homo sapiens; conditions: Homo sapiens, RXF 393;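 further: growth inhibition of human RXF 393 cells, read out with a cell viability assay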
Description: SANGER: Inhibition of human RXF393 cell growth in a cell viability assay.

Compound | IC50
Cc1ccc(-n2nc(C(C)(C)C)cc2NC(=O)Nc2ccc(OCCN3CCOCC3)c3ccccc23)cc1 [DORAMAPIMOD] | > 10 µM

system: SF-126; experiment: cells; type: functional, cell-based, Homo sapiens; conditions: Homo sapiens, SF-126;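 further: growth inhibition of human SF126 cells, read out with a cell viability assay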
Description: SANGER: Inhibition of human SF126 cell growth in a cell viability assay.

Compound | IC50
Cc1ccc(-n2nc(C(C)(C)C)cc2NC(=O)Nc2ccc(OCCN3CCOCC3)c3ccccc23)cc1 [DORAMAPIMOD] | > 10 µM

system: SH-4; experiment: cells; type: functional, cell-based; conditions: Homo sapiens;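 further: growth inhibition of SH-4 cells, read out with a cell viability assay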
Description: SANGER: Inhibition of human SH-4 cell growth in a cell viability assay.

Compound | IC50
Cc1ccc(-n2nc(C(C)(C)C)cc2NC(=O)Nc2ccc(OCCN3CCOCC3)c3ccccc23)cc1 [DORAMAPIMOD] | > 10 µM

system: SK-MEL-1; experiment: cells; type: functional, cell-based, Homo sapiens; conditions: Homo sapiens, SK-MEL-1;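 further: growth inhibition of human SK-MEL-1 cells, read out by a cell viability assay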
Description: SANGER: Inhibition of human SK-MEL-1 cell growth in a cell viability assay.

Compound | IC50
Cc1ccc(-n2nc(C(C)(C)C)cc2NC(=O)Nc2ccc(OCCN3CCOCC3)c3ccccc23)cc1 [DORAMAPIMOD] | > 10 µM

system: SNU-C2B; experiment: cells; type: functional, cell-based; conditions: Homo sapiens;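 further: cell viability readout used to measure compound-driven suppression of SNU-C2B cell proliferation, IC50 marking half-maximal growth inhibition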
Description: SANGER: Inhibition of human SNU-C2B cell growth in a cell viability assay.

Compound | IC50
Cc1ccc(-n2nc(C(C)(C)C)cc2NC(=O)Nc2ccc(OCCN3CCOCC3)c3ccccc23)cc1 [DORAMAPIMOD] | > 10 µM

system: ALL-PO; experiment: cells; type: functional, cell-based, Homo sapiens; conditions: Homo sapiens, ALL-PO;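 further: growth inhibition of ALL-PO cells, read out by a cell viability assay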
Description: SANGER: Inhibition of human ALL-PO cell growth in a cell viability assay.

Compound | IC50
Cc1ccc(-n2nc(C(C)(C)C)cc2NC(=O)Nc2ccc(OCCN3CCOCC3)c3ccccc23)cc1 [DORAMAPIMOD] | > 10 µM

system: BB49-HNC; experiment: cells; type: functional, cell-based, Homo sapiens; conditions: Homo sapiens, BB49-HNC;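 further: cell viability assay read-out, reported as inhibition of BB49-HNC cell growth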
Description: SANGER: Inhibition of human BB49-HNC cell growth in a cell viability assay.

Compound | IC50
Cc1ccc(-n2nc(C(C)(C)C)cc2NC(=O)Nc2ccc(OCCN3CCOCC3)c3ccccc23)cc1 [DORAMAPIMOD] | > 10 µM

system: BE-13; experiment: cells; type: functional, cell-based, Homo sapiens; conditions: Homo sapiens, BE-13;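 further: growth inhibition of human BE-13 cells, measured with a cell viability assay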
Description: SANGER: Inhibition of human BE-13 cell growth in a cell viability assay.

Compound | IC50
Cc1ccc(-n2nc(C(C)(C)C)cc2NC(=O)Nc2ccc(OCCN3CCOCC3)c3ccccc23)cc1 [DORAMAPIMOD] | > 10 µM

system: C2BBe1; experiment: cells; type: functional, cell-based, Homo sapiens; conditions: Homo sapiens, C2BBe1;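 further: growth inhibition of C2BBe1 cells, read out through a viability assay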
Description: SANGER: Inhibition of human C2BBe1 cell growth in a cell viability assay.

Compound | IC50
Cc1ccc(-n2nc(C(C)(C)C)cc2NC(=O)Nc2ccc(OCCN3CCOCC3)c3ccccc23)cc1 [DORAMAPIMOD] | > 10 µM

system: TE-10; experiment: cells; type: functional, cell-based, Homo sapiens; conditions: Homo sapiens, TE-10;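 further: growth inhibition of TE-10 cells, measured by a cell viability assay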
Description: SANGER: Inhibition of human TE-10 cell growth in a cell viability assay.

Compound | IC50
Cc1ccc(-n2nc(C(C)(C)C)cc2NC(=O)Nc2ccc(OCCN3CCOCC3)c3ccccc23)cc1 [DORAMAPIMOD] | > 10 µM

system: TGBC24TKB; experiment: cells; type: functional, cell-based; conditions: Homo sapiens;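 further: growth inhibition of human TGBC24TKB cells, read out with a cell viability assay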
Description: SANGER: Inhibition of human TGBC24TKB cell growth in a cell viability assay.

Compound | IC50
Cc1ccc(-n2nc(C(C)(C)C)cc2NC(=O)Nc2ccc(OCCN3CCOCC3)c3ccccc23)cc1 [DORAMAPIMOD] | > 10 µM

system: VA-ES-BJ; experiment: cells; type: functional, cell-based, Homo sapiens; conditions: Homo sapiens, VA-ES-BJ;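 further: growth inhibition of the VA-ES-BJ cell line, read out by a cell viability assay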
Description: SANGER: Inhibition of human VA-ES-BJ cell growth in a cell viability assay.

Compound | IC50
Cc1ccc(-n2nc(C(C)(C)C)cc2NC(=O)Nc2ccc(OCCN3CCOCC3)c3ccccc23)cc1 [DORAMAPIMOD] | > 10 µM

system: no-11; experiment: cells; type: functional, cell-based, Homo sapiens; conditions: Homo sapiens;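 further: growth inhibition of human NO-11 cells, read out with a cell viability assay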
Description: SANGER: Inhibition of human no-11 cell growth in a cell viability assay.

Compound | IC50
Cc1ccc(-n2nc(C(C)(C)C)cc2NC(=O)Nc2ccc(OCCN3CCOCC3)c3ccccc23)cc1 [DORAMAPIMOD] | > 10 µM

system: COLO-684; experiment: cells; type: functional, cell-based, Homo sapiens; conditions: Homo sapiens, COLO-684
Description: SANGER: Inhibition of human COLO-684 cell growth in a cell viability assay.

Compound | IC50
Cc1ccc(-n2nc(C(C)(C)C)cc2NC(=O)Nc2ccc(OCCN3CCOCC3)c3ccccc23)cc1 [DORAMAPIMOD] | > 10 µM
